Results reported in ChEMBL document CHEMBL1201862, “PubChem BioAssay data set” (2004).
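The compound was tested at five concentrations on cells cultured in 96-well plates, with a 48-hour exposure period. GI50 = concentration required for 50% inhibition of growth.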 Active and inactive are the calls of the source. No stated cut-off is given here; in the data, active = GI50 up to about 1.1 µM and inactive = higher.

Legend:
Experiment in all cases: growth of human tumour cells (NCI), 48 h
ACHN = tested on: ACHN
COLO 205 = tested on: COLO 205
HCT-116 = tested on: HCT-116
HCT-15 = tested on: HCT-15
HOP-92 = tested on: HOP-92
HT-29 = tested on: HT-29
MOLT-4 = tested on: MOLT-4
NCI-H522 = tested on: NCI-H522
OVCAR-3 = tested on: OVCAR-3
OVCAR-4 = tested on: OVCAR-4
OVCAR-8 = tested on: OVCAR-8
RPMI-8226 = tested on: RPMI-8226
SF-295 = tested on: SF-295
SK-MEL-28 = tested on: SK-MEL-28
SNB-19 = tested on: SNB-19
SW-620 = tested on: SW-620
UACC-62 = tested on: UACC-62
TK-10 = tested on: TK-10

Row | SMILES | GI50 (ACHN) | GI50 (COLO 205) | GI50 (HCT-116) | GI50 (HCT-15) [µM] | GI50 (HOP-92) | GI50 (HT-29) | GI50 (MOLT-4) | GI50 (NCI-H522) | GI50 (OVCAR-3) | GI50 (OVCAR-4) | GI50 (OVCAR-8) | GI50 (RPMI-8226) | GI50 (SF-295) | GI50 (SK-MEL-28) | GI50 (SNB-19) | GI50 (SW-620) | GI50 (UACC-62) | GI50 (TK-10)
1 | CC(=O)OC1COC(n2c(=S)n(-c3ccccc3)c(=O)c3ccccc32)C(OC(C)=O)C1OC(C)=O (centres undefined) | 25.2 µM (inactive) | 99.1 µM (inactive) | 47.9 µM (inactive) | 6 | 37.1 µM (inactive) | 85.3 µM (inactive) | 21 µM (inactive) | 35 µM (inactive) | 74.6 µM (inactive) | 26.8 µM (inactive) | 72.8 µM (inactive) | 22.5 µM (inactive) | 19.9 µM (inactive) | > 100 µM (inactive) | > 100 µM (inactive) | 44.6 µM (inactive) | 4.05 µM (inactive) | 
2 | CN1C(=O)C(Cl)(C(Cl)(Cl)S(=O)(=O)O)C(=O)c2ccccc21.c1ccncc1 (centres undefined) | 76.4 µM (inactive) | > 100 µM (inactive) | > 100 µM (inactive) |  | > 100 µM (inactive) | 25.7 µM (inactive) | > 100 µM (inactive) | 44.9 µM (inactive) | > 100 µM (inactive) | > 100 µM (inactive) | > 100 µM (inactive) | > 100 µM (inactive) | > 100 µM (inactive) | > 100 µM (inactive) | > 100 µM (inactive) | > 100 µM (inactive) | > 100 µM (inactive) | > 100 µM (inactive)
3 | COc1ccc(-c2cc(=O)c3c(O)cc(O)cc3o2)c(OC)c1OC | > 10 µM (inactive) | 57.7 µM (inactive) |  |  | 72.6 µM (inactive) | 80 µM (inactive) |  | 52.1 µM (inactive) | 38.9 µM (inactive) | 62.8 µM (inactive) |  | 17.6 µM (inactive) | 87.5 µM (inactive) | 94.2 µM (inactive) | > 100 µM (inactive) | 71.1 µM (inactive) | 97.1 µM (inactive) | > 100 µM (inactive)
4 | O=C1[C@@H]2C3SC(c4ccccc43)[C@@H]2C(=O)N1c1ccccc1 | > 100 µM (inactive) | > 100 µM (inactive) | > 100 µM (inactive) | > 100 | > 64.1 µM (inactive) | > 100 µM (inactive) | > 100 µM (inactive) | > 100 µM (inactive) | > 100 µM (inactive) |  | > 100 µM (inactive) | > 100 µM (inactive) | > 88.9 µM (inactive) | > 100 µM (inactive) | 41.9 µM (inactive) | > 100 µM (inactive) | > 100 µM (inactive) | 97.1 µM (inactive)
5 | CCC12CCCN(Cc3ccccc3)C1c1c(n(C)c3ccccc13)C(C(=O)OC)C2 (centres undefined) | 182 µM (inactive) | 107 µM (inactive) | 51.6 µM (inactive) | 70.3 | 79.8 µM (inactive) | 73.1 µM (inactive) | 74.3 µM (inactive) | 53.2 µM (inactive) | 53.7 µM (inactive) |  | 169 µM (inactive) | 82.4 µM (inactive) | 75.7 µM (inactive) | > 239 µM (inactive) | 72.9 µM (inactive) | 115 µM (inactive) | > 239 µM (inactive) | > 239 µM (inactive)
6 | CCN1CCC(O)(c2ccc(Cl)cc2)C(C(=O)c2ccc(Cl)cc2)C1 (centres undefined) | > 100 µM (inactive) | > 100 µM (inactive) | > 100 µM (inactive) |  | > 100 µM (inactive) | > 100 µM (inactive) | > 100 µM (inactive) | 20.4 µM (inactive) | > 100 µM (inactive) | > 100 µM (inactive) | > 100 µM (inactive) | 24.4 µM (inactive) | > 100 µM (inactive) | > 100 µM (inactive) | > 100 µM (inactive) | 70.3 µM (inactive) | > 100 µM (inactive) | > 100 µM (inactive)
